# From a melting point compilation (Tetko et al.)
row,melting point [°C],SMILES
1,206 to 210,Cc1cc2occ(C#N)c(=O)c2cc1C
2,240,O=C(O)CCc1ccc2c(c1)NC(=O)CC2
3,200,N#Cc1cc2ccccc2oc1=N
4,298 to 300,CC(C)(C)OC(=O)N1CCN(c2ccc(C(=O)O)cn2)CC1
5,300,Cc1cc(O)nc(N)n1
6,283,CC(=O)Nc1ccc(-c2ccc(NC(C)=O)cc2NC(C)=O)c(NC(C)=O)c1
7,-9,CCCCCCC(=O)CCC
8,99 to 102,COc1ccc2nonc2c1
9,185,O=C(C1=NOC2C(=O)N(c3cc(Cl)ccc3Cl)C(=O)C12)c1ccccc1 (stereo not drawn)
10,223,CCCCS(=O)(=O)NC(Cc1ccc(OCCCCC2CCNCC2)cc1)C(=O)O (stereo not drawn)
11,63 to 65,CCCc1c(C(=O)OCC)cnn1-c1ccc(Cl)cc1
12,81.5 to 82.5,Clc1nccc(-c2ccco2)n1
13,100,CCOC(=O)C(=Nn1nnc2ccccc21)C(=O)OCC
14,137,CN1CCN(C2=Nc3ccccc3Cc3ccccc32)CC1
15,92,CC(O)C(O)(c1ccccc1)c1ccccc1 (stereo not drawn)
16,78,Cc1ccc(-c2cnco2)cc1
17,112,CCCOC(=O)C1=C(C)NC(C)=C(C(=O)OCCC)C1c1ccco1
18,162,NS(=O)(=O)c1ccc(F)c(C(F)(F)F)c1
19,247,O=C(Nc1cccc(N=[N+]([O-])c2cccc(NC(=O)c3ccccc3)c2)c1)c1ccccc1
20,79,CSCS(=O)(=O)c1ccc(C)cc1
21,193 to 194,O=P(c1ccccc1)(c1ccccc1)C1C=C(c2ccc(Br)cc2)OC(c2ccc(Br)cc2)=C1
22,192 to 193,O=C(O)c1cc(-c2ccc(Cl)cc2)oc1C(F)(F)F
23,99,O=S(O)c1ccc(Cl)cc1

row,melting point [°C],SMILES
1,205 to 206,c1cnc2c(SSc3cccc4cccnc34)cccc2c1
2,260,O=c1c(C=Cc2nc3ccccc3[nH]2)coc2ccccc12
3,101 to 102,O=Cc1ccc(-c2ccsc2)cc1
4,54,CC1=C(C)C(C(C)C)C=C1Cc1ccccc1 (stereo not drawn)
5,320,Cc1nc(C)c(Cl)c(O)c1Cl
6,52,Cc1cc2ccccc2s1
7,70 to 74,Cc1c(C(=O)Cl)oc2ccccc12
8,180,CCOC(=O)c1nn(-c2ccc(C)cc2)c(C)c1C(=O)c1noc(-c2ccc(C)cc2)c1S(=O)(=O)c1ccccc1
9,18,ClC1CCC(Cl)CC1 (stereo not drawn)
10,139,CCOC(=O)C(CCc1ccccc1)NC(C)C(=O)N1C(=O)N(C)CC1C(=O)O (stereo not drawn)
11,205,CCCCCC(=O)Cc1cc(O)cc2c1C(=O)Oc1cc(O)c(C(=O)O)c(CCCCC)c1O2
12,35,Fc1ccc(Br)c2ccccc12
13,239,CC12CCC3C(=CCc4cc(O)ccc43)C1CCC2=O (stereo not drawn)
14,67 to 70,COC(=O)[C@H]1CC[C@H](C(=O)OC)CC1
15,225,N#C/C(=N/Nc1ccc(F)cc1)c1nc(-c2ccc(Cl)cc2)cs1
16,186 to 190,Cc1cccc(OCC(=O)O)c1C
17,125 to 127,CCOC(=O)c1c(NC(=S)NCc2ccccc2)sc2c1CCCC2
18,226,Nc1ncnc2c1ncn2C1OC(CO)CC1O (stereo not drawn)
19,218,C/C(=N/NC(N)=O)C1=CC2(C)CCC1C2(C)C (stereo not drawn)
20,90,COc1cc(CCC(=O)O)ccc1O
21,196,CN=C(NC)NCc1ccccc1
22,189 to 191,Nc1ncnc2c1ncn2[C@H]1C=C[C@@H](CO)O1
23,187 to 191,O=C(O)C=C(CC(=O)O)C(=O)O

row,melting point [°C],SMILES
1,66 to 67,Brc1ccc(-c2ccno2)s1
2,89 to 91,CC(C)(C)OC(=O)N1CCC(C(=O)c2ccc(F)cc2)CC1
3,43.5,C#CCOc1c(Cl)cccc1Cl
4,47,CC(C)(S)C(=O)O
5,217,COc1ccc(-c2oc3c(C)c(OC)cc(OC)c3c(=O)c2C)cc1OC
6,172 to 174,O=[N+]([O-])c1ccc(-c2ccno2)cc1
7,170,C=Cc1ccc(C(N)=O)cc1
8,139 to 140,O=c1c(Cl)c(Cl)cnn1-c1ccc(C(F)(F)F)cc1
9,116,NC(=O)c1cccc(F)c1F
10,181 to 182,O=C1OC(c2ccc(Cl)cc2)=NC1=Cc1ccccc1
11,191,COc1ccc(OC)c2c(=O)c(=O)c12
12,278 to 279,O=C(Nc1nnc(-c2ccc(Cl)cc2)o1)c1ccc(Cl)cc1
13,155,COc1c2occc2c(OC)c2c(=O)cc(C)oc12
14,103,O=C(NCCCl)c1ccccc1
15,198 to 200,OCc1ccccc1O[C@@H]1O[C@H](CO)[C@@H](O)[C@H](O)[C@H]1O
16,-44.5,CCc1cccc2c1CCCC2
17,178,CCOC(=O)C=Cc1ccc(C=CC(=O)OCC)c(N)c1
18,36,CN(C)c1ccc(F)cc1
19,210 to 212,Cn1c(C(=O)O)ccc1S(N)(=O)=O
20,60 to 62,Cc1c(Br)cc(C(=O)Cl)c(C)c1C
21,-47,COc1cccc(C)c1
22,116,COc1ccc(CCc2cc(OC)c3ccccc3n2)cc1OC
23,92,O=[N+]([O-])c1ccc(Cc2ccccn2)c([N+](=O)[O-])c1

row,melting point [°C],SMILES
1,38,Cc1nc(Br)ccc1Br
2,60.5 to 61.5,O=C1CCCc2occc21
3,285 to 290,O=c1[nH]c2ccc(Br)cc2c(=O)o1
4,202 to 204,Nc1nnc(-c2ccc([N+](=O)[O-])cc2)s1
5,66,OC12CCCC1c1ccccc12 (stereo not drawn)
6,58 to 58.5,CC1=C(c2ccccc2)c2ccccc2C1
7,303,O=C1C(=Cc2ccc(O)c(O)c2)Oc2cc(O)ccc21
8,202,O=C(CCCN1CCC(n2c(=S)[nH]c3ccccc32)CC1)c1ccc(F)cc1
9,69 to 75,CC(=O)Oc1ccc([N+](=O)[O-])cc1[N+](=O)[O-]
10,110,CCN(C(=O)Oc1cccc(NC(=O)OC(C)C)c1)c1ccccc1
11,54,CCCCCCCCCCCCCCCC(C)O (stereo not drawn)
12,240,NC(C(=O)O)c1ccc(O)cc1 (stereo not drawn)
13,93 to 94,c1ccc(-c2nsc(N3CCNCC3)n2)cc1
14,204 to 206,CCOC(=O)c1[nH]cnc1C
15,69 to 71,Cn1ccc2c(CO)cccc21
16,77 to 79,O=C(Cl)c1cnn(-c2ccc([N+](=O)[O-])cc2)c1C(F)(F)F
17,57,Cc1cccc(OCC(O)CNC(C)(C)C)c1C (stereo not drawn)
18,36.5,CC(=O)CC(=O)O
19,103 to 104,Cc1cc(I)c(C)cc1I
20,161 to 165,CC(=O)c1cc(Cl)c(N)c(Cl)c1
21,79 to 80,O=C(NCSCc1ccccc1)c1ccccc1
22,140,O=Cc1cccc2c1CCOC2=O
23,94 to 95,Brc1ccc(Oc2ccc(Br)c(Br)c2)cc1Br

row,melting point [°C],SMILES
1,-70,C=CC(=O)OCC(CC)CC
2,174 to 176,CS(=O)(=O)c1ccc2ccn(O)c2c1
3,98 to 100,CCCCc1nc(C=O)c(Cl)[nH]1
4,210 to 213,Cc1cccc(Oc2ncccc2[N+](=O)[O-])c1C
5,96 to 98,O=Cc1ccc(-c2ccccc2[N+](=O)[O-])o1
6,82 to 84,Ic1ccc(Cn2cncn2)cc1
7,86,COc1ccccc1NC(=O)CC(C)=O
8,84 to 86,C=CCOc1ccc2c(=O)cc(C(=O)OCC)oc2c1CCC
9,130 to 131,CCc1ccc(O)c(C(C)=O)c1O
10,234 to 235,Cc1nc2sc3c(c2c(=O)n1NC(=O)c1ccc(Cl)cc1)CCCC3
11,70 to 74,CCOC(=O)C1=C(N)CCCC1
12,98 to 102,CCCC(=O)Oc1c[nH]c2cc(Cl)ccc12
13,77.5,CC(C=CC=C(C)C=CC1=C(C)C=CCC1(C)C)=CC=O
14,118 to 119,Nc1cccc(N2CCOCC2)c1
15,227,O=c1oc2c(o1)=C(c1ccccc1)S(=O)(=O)C=2c1ccccc1
16,77.5,Cc1ncc([N+](=O)[O-])n1CC(O)CCl (stereo not drawn)
17,36,Cc1c(F)c(F)c(C)c(F)c1F
18,170 to 172,Nc1cccc(F)c1C(=O)O
19,72,O=C(Oc1ccccc1)c1cccnc1
20,150 to 152,O=C(COc1ccc2ccccc2c1)ON1C(=O)CCC1=O
21,35,Cc1ccc(CO)cc1F

row,SMILES,melting point [°C]
1,ClC(Cl)(Cl)c1ccc(C(Cl)(Cl)Cl)cc1,109
2,Clc1ccc2c(c1)Oc1cc(Cl)ccc1O2,151
3,N[C@H](c1ccccc1)[C@@H](O)c1ccccc1,142 to 144
4,O=C(O)CCCOc1ccc(Cl)cc1Cl,118
5,CN1CCC23CCCCC2C1Cc1ccc(O)cc13 (stereo not drawn),198
6,COc1cc2c(c(OC)c1OC)-c1ccc(SC)c(=O)cc1C(NC(C)=O)CC2 (stereo not drawn),193
7,Cc1ccccc1-n1c(C)nc2ccccc2c1=O,120
8,Clc1ccc2ccccc2c1Cl,36
9,CC12CCC(=O)CC1CCC1C2CCC2(C)C(O)(C(=O)CO)CCC12O (stereo not drawn),218
10,N#CC1CCCCC1,11
11,NC(=O)Cc1ccccc1,157
12,CCCCCCC(O)C1C2=C(CC(C(O)C3CC=CC(=O)O3)CC3=C(C(=O)OC3=O)C1O)C(O)OC2=O (stereo not drawn),214
13,CC(=O)OC1CCC2C3CCC4CC(C(C)=O)CCC4(C)C3CCC12C (stereo not drawn),140
14,CSC#N,-5
15,CCC1CN2CCc3cc(OC)c(OC)cc3C2CC1CC1NCCc2cc(O)c(OC)cc21 (stereo not drawn),116
